Converted amounts (≈) assume the structure as drawn.
Columns and labels:
Format in all cases: functional
Cryptococcus neoformans [1] = assay: Antifungal activity against Cryptococcus neoformans ATCC32045 assessed as inhibition of fungal growth incubated for 72 hrs by broth microdilution method
Cryptococcus neoformans [2] = assay: Selectivity ratio of MFC for Cryptococcus neoformans ATCC32045 to MIC for Cryptococcus neoformans ATCC32045
Aspergillus fumigatus = assay: Antifungal activity against Aspergillus fumigatus AS3.3913 assessed as inhibition of fungal growth incubated for 72 hrs by broth microdilution method
Candida albicans = assay: Antifungal activity against Candida albicans ATCC10231 assessed as inhibition of fungal growth incubated for 72 hrs by broth microdilution method
Cryptococcus neoformans [3] = assay: Fungicidal activity against Cryptococcus neoformans ATCC32045 incubated for 72 hrs
Candida tropicalis = assay: Antifungal activity against Candida tropicalis ATCC1369 assessed as inhibition of fungal growth incubated for 72 hrs by broth microdilution method

## CCCCCc1ccc(-c2ccc(O)c(O)c2)cc1
Cryptococcus neoformans [1]
  MIC: 0.25 µg/mL (≈ 0.975 µM)
Cryptococcus neoformans [2]
  Selectivity ratio: 2
Aspergillus fumigatus
  MIC: 16 µg/mL (≈ 62.4 µM)
Candida albicans
  MIC: 4 µg/mL (≈ 15.6 µM)
Cryptococcus neoformans [3]
  MFC: 0.5 µg/mL (≈ 1.95 µM)
Candida tropicalis
  MIC: 2 µg/mL (≈ 7.8 µM)

## CCCCc1ccc(-c2cc(O)c(O)c(OC)c2)cc1
Cryptococcus neoformans [1]
  MIC: 2 µg/mL (≈ 7.34 µM)
Aspergillus fumigatus
  MIC: 32 µg/mL (≈ 117 µM)
Candida albicans
  MIC: 16 µg/mL (≈ 58.7 µM)
Candida tropicalis
  MIC: 4 µg/mL (≈ 14.7 µM)

## CCCCCc1ccc(-c2cc(O)c(O)c(OC)c2)cc1
Cryptococcus neoformans [1]
  MIC: 2 µg/mL (≈ 6.98 µM)
Aspergillus fumigatus
  MIC: 512 µg/mL (≈ 1790 µM)
Candida albicans
  MIC: 8 µg/mL (≈ 27.9 µM)
Candida tropicalis
  MIC: 2 µg/mL (≈ 6.98 µM)

## COc1cc(-c2ccccc2)cc(OC(=O)c2ccc(C)cc2)c1OC(=O)c1ccc(C)cc1
Cryptococcus neoformans [1]
  MIC: > 512 µg/mL
Aspergillus fumigatus
  MIC: > 512 µg/mL
Candida albicans
  MIC: > 512 µg/mL
Candida tropicalis
  MIC: > 512 µg/mL

## COc1cc(-c2ccccc2)cc(OCc2ccccc2)c1OCc1ccccc1
Cryptococcus neoformans [1]
  MIC: > 512 µg/mL
Aspergillus fumigatus
  MIC: > 512 µg/mL
Candida albicans
  MIC: > 512 µg/mL
Candida tropicalis
  MIC: > 512 µg/mL

## COc1cc(-c2ccccc2)cc2c1OCO2
Cryptococcus neoformans [1]
  MIC: > 512 µg/mL
Aspergillus fumigatus
  MIC: 512 µg/mL (≈ 2240 µM)
Candida albicans
  MIC: > 512 µg/mL
Candida tropicalis
  MIC: > 512 µg/mL

## CCCCCc1ccc(-c2cc(O)ccc2O)cc1
Cryptococcus neoformans [1]
  MIC: 2 µg/mL (≈ 7.8 µM)
Aspergillus fumigatus
  MIC: 64 µg/mL (≈ 250 µM)
Candida albicans
  MIC: 16 µg/mL (≈ 62.4 µM)
Candida tropicalis
  MIC: 16 µg/mL (≈ 62.4 µM)

## COc1cc(-c2ccc(C3CCCCC3)cc2)cc(O)c1O
Cryptococcus neoformans [1]
  MIC: 2 µg/mL (≈ 6.7 µM)
Aspergillus fumigatus
  MIC: > 512 µg/mL
Candida albicans
  MIC: 512 µg/mL (≈ 1720 µM)
Candida tropicalis
  MIC: 512 µg/mL (≈ 1720 µM)

## COc1cc(-c2cc(C(C)(C)C)cc(C(C)(C)C)c2)cc(O)c1O
Cryptococcus neoformans [1]
  MIC: > 512 µg/mL
Aspergillus fumigatus
  MIC: 128 µg/mL (≈ 390 µM)
Candida albicans
  MIC: > 512 µg/mL
Candida tropicalis
  MIC: > 512 µg/mL

## CCCCCc1ccc(-c2cccc(O)c2O)cc1
Cryptococcus neoformans [1]
  MIC: 1 µg/mL (≈ 3.9 µM)
Aspergillus fumigatus
  MIC: 16 µg/mL (≈ 62.4 µM)
Candida albicans
  MIC: 4 µg/mL (≈ 15.6 µM)
Candida tropicalis
  MIC: 2 µg/mL (≈ 7.8 µM)

## CCCCC(=O)c1ccc(-c2cc(O)c(O)c(OC)c2)cc1
Cryptococcus neoformans [1]
  MIC: 512 µg/mL (≈ 1700 µM)
Aspergillus fumigatus
  MIC: 512 µg/mL (≈ 1700 µM)
Candida albicans
  MIC: 512 µg/mL (≈ 1700 µM)
Candida tropicalis
  MIC: 512 µg/mL (≈ 1700 µM)

## C=CCOc1cc(-c2ccccc2)cc(OC)c1OCC=C
Cryptococcus neoformans [1]
  MIC: > 512 µg/mL
Aspergillus fumigatus
  MIC: > 512 µg/mL
Candida albicans
  MIC: > 512 µg/mL
Candida tropicalis
  MIC: > 512 µg/mL

## CCc1cccc(-c2cc(O)c(O)c(OC)c2)c1
Cryptococcus neoformans [1]
  MIC: 32 µg/mL (≈ 131 µM)
Aspergillus fumigatus
  MIC: 128 µg/mL (≈ 524 µM)
Candida albicans
  MIC: 128 µg/mL (≈ 524 µM)
Candida tropicalis
  MIC: 128 µg/mL (≈ 524 µM)

## COc1cc(-c2ccccc2)cc(OC)c1O [AUCUPARIN]
Cryptococcus neoformans [1]
  MIC: 64 µg/mL (≈ 278 µM)
Aspergillus fumigatus
  MIC: > 512 µg/mL
Candida albicans
  MIC: > 512 µg/mL
Candida tropicalis
  MIC: > 512 µg/mL

## Oc1cc(-c2ccccc2)cc(O)c1O
Cryptococcus neoformans [1]
  MIC: 256 µg/mL (≈ 1270 µM)
Aspergillus fumigatus
  MIC: > 512 µg/mL
Candida albicans
  MIC: > 512 µg/mL
Candida tropicalis
  MIC: > 512 µg/mL

## CCc1cc(CC)cc(-c2cc(O)c(O)c(OC)c2)c1
Cryptococcus neoformans [1]
  MIC: 8 µg/mL (≈ 29.4 µM)
Aspergillus fumigatus
  MIC: 32 µg/mL (≈ 117 µM)
Candida albicans
  MIC: 64 µg/mL (≈ 235 µM)
Candida tropicalis
  MIC: 16 µg/mL (≈ 58.7 µM)

## CCCCCCc1ccc(-c2cc(O)c(O)c(OC)c2)cc1
Cryptococcus neoformans [1]
  MIC: 1 µg/mL (≈ 3.33 µM)
Aspergillus fumigatus
  MIC: > 512 µg/mL
Candida albicans
  MIC: 512 µg/mL (≈ 1700 µM)
Candida tropicalis
  MIC: 4 µg/mL (≈ 13.3 µM)

## CCc1ccccc1-c1cc(O)c(O)c(OC)c1
Cryptococcus neoformans [1]
  MIC: 64 µg/mL (≈ 262 µM)
Aspergillus fumigatus
  MIC: 128 µg/mL (≈ 524 µM)
Candida albicans
  MIC: 256 µg/mL (≈ 1050 µM)
Candida tropicalis
  MIC: 128 µg/mL (≈ 524 µM)

## CCCCc1ccc(-c2ccc(O)c(O)c2)cc1
Cryptococcus neoformans [1]
  MIC: 0.5 µg/mL (≈ 2.06 µM)
Aspergillus fumigatus
  MIC: 16 µg/mL (≈ 66 µM)
Candida albicans
  MIC: 4 µg/mL (≈ 16.5 µM)
Candida tropicalis
  MIC: 4 µg/mL (≈ 16.5 µM)

## CCCc1ccc(-c2cc(O)c(O)c(OC)c2)cc1
Cryptococcus neoformans [1]
  MIC: 4 µg/mL (≈ 15.5 µM)
Aspergillus fumigatus
  MIC: 64 µg/mL (≈ 248 µM)
Candida albicans
  MIC: 16 µg/mL (≈ 61.9 µM)
Candida tropicalis
  MIC: 8 µg/mL (≈ 31 µM)

— ChEMBL document CHEMBL5634120, “Natural phytoalexins inspired the discovery of new biphenyls as potent antifungal agents for treatment of invasive fungal infections” (Eur J Med Chem, 2023)
